# Laboratory results taken from patent US20210330611A1, “THERAPY FOR NEUROLOGICAL DISEASES/DISORDERS” (priority 2020, published 2021).
# Read-outs that look alike come from different tables or passages of the source.
# Experiments:
# [1] = tested on: fibrin-induced microglia activation; experiment: Image-based assay of fibrin-induced microglia activation (HTS and dose response); format: cell-based, rat; conditions: for inhibition at 10 µM: read-out: Fibrin % inhibition
# [2] = tested on: LPS-induced microglia activation; experiment: Image-based assay of LPS-induced microglia activation (HTS and dose response); format: cell-based, rat
# [3] = tested on: fibrin- and LPS-induced microglia activation; experiment: cells; format: cell-based, rat
# primary rat microglia [4] = tested on: primary rat microglia;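 on Fibrin % cell toxicity: share of dead cells sized under 150 µm2 at 10 µM in fibrin-stimulated microglia HTS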
# primary rat microglia [5] = tested on: primary rat microglia; remark: listed apart in the source;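 on Fibrin % cell toxicity: share of dead cells sized under 150 µm2 at 10 µM in fibrin-stimulated microglia HTS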
# [6] = Rattus norvegicus, Microglia, primary microglia HTS, 10 μM, fibrin-stimulated, cell size >800 μm^2 as marker of activation
# [7] = Rattus norvegicus, Microglia, primary microglia HTS, 10 μM, LPS-stimulated, cell size >800 μm^2 as marker of activation; read-out: LPS % inhibition
# [8] = HTS of 1907 compounds, quadrant by fibrin and LPS inhibition
# [9] = Rattus norvegicus, Microglia, 48 h, read-out: LPS % inhibition
# [10] = Rattus norvegicus, Microglia, primary microglia HTS, fibrin stimulation, cell size >800 μm2 as marker of activation
# [11] = Rattus norvegicus, Microglia, 48 h; read-out: LPS % inhibition
# [12] = classification by fibrin and LPS inhibition in HTS
# [13] = Rattus norvegicus, Microglia, read-out: LPS % inhibition
# [14] = quadrant by fibrin and LPS inhibition in HTS of 1907 compounds
# [15] = primary microglia HTS, fibrin stimulation, cell size >800 μm2 as marker of activation
# [16] = Rattus norvegicus, Microglia, primary microglia HTS, fibrin stimulation, increased cell size (>800 μm^2) as marker of activation
# [17] = Rattus norvegicus, Microglia, 48 h, primary microglia HTS, LPS stimulation; increased cell size (>800 μm^2) as marker of activation; read-out: LPS % inhibition
compound,measurement,setting,value
O=C1CCC(N2C(=O)c3ccccc3C2=O)C(=O)N1 (stereo not shown) [Thalidomide],inhibition at 10 µM,[1]; [6],8%
same,inhibition at 10 µM,[2]; [7],23%
same,Quadrant (FIG. 5b),[3]; [8],Q4
same,Fibrin % cell toxicity,primary rat microglia [4]; rat,0%
same,LPS % cell toxicity,primary rat microglia [5]; rat,1%
Cc1c(-c2cnccn2)ssc1=S [Oltipraz],inhibition at 10 µM,"[1]; Rattus norvegicus, Microglia",-2%
same,inhibition at 10 µM,[2]; [9],-1%
same,Quadrant (FIG. 5b),[3],Q4
same,Fibrin % cell toxicity,primary rat microglia [4]; rat,1%
same,LPS % cell toxicity,primary rat microglia [5]; rat,0%
CCCCC1C(=O)N(c2ccccc2)N(c2ccccc2)C1=O [Phenylbutazone],inhibition at 10 µM,[1]; [10],-23%
same,inhibition at 10 µM,[2]; [11],5%
same,Quadrant (FIG. 5b),[3]; [12],Q4
same,Fibrin % cell toxicity,primary rat microglia [4]; rat,0%
same,LPS % cell toxicity,primary rat microglia [5]; rat,0%
CCN(CC)CCOc1ccc(C(=C(Cl)c2ccccc2)c2ccccc2)cc1 [Clomiphene],inhibition at 10 µM,"[1]; Rattus norvegicus, Microglia",11%
same,inhibition at 10 µM,[2]; [13],7%
same,Quadrant (FIG. 5b),[3],Q4
same,Fibrin % cell toxicity,primary rat microglia [4]; rat,1%
same,LPS % cell toxicity,primary rat microglia [5]; rat,0%
CNCC[C@H](Oc1cccc2ccccc12)c1cccs1 [Duloxetine],inhibition at 10 µM,"[1]; Rattus norvegicus, Microglia",22%
same,inhibition at 10 µM,[2]; [13],24%
same,Quadrant (FIG. 5b),[3],Q4
same,Fibrin % cell toxicity,primary rat microglia [4]; rat,0%
same,LPS % cell toxicity,primary rat microglia [5]; rat,0%
CC(=O)CCCCn1c(=O)c2c(ncn2C)n(C)c1=O [Pentoxifylline],inhibition at 10 µM,[1]; [10],4%
same,inhibition at 10 µM,[2]; [11],6%
same,Quadrant (FIG. 5b),[3]; [12],Q4
same,Fibrin % cell toxicity,primary rat microglia [4]; rat,0%
same,LPS % cell toxicity,primary rat microglia [5]; rat,0%
CCCCCCCCCCCCCCCC(=O)OC[C@H](O)[C@H]1OC(=O)C(O)=C1O [Ascorbyl Palmitate],inhibition at 10 µM,"[1]; Rattus norvegicus, Microglia, primary microglia HTS, fibrin stimulation, compounds at 10 μM",38%
same,inhibition at 10 µM,"[2]; Rattus norvegicus, Microglia, primary microglia HTS, LPS stimulation, compounds at 10 μM; read-out: LPS % inhibition",20%
same,Quadrant (FIG. 5b),"[3]; quadrant by fibrin and LPS inhibition, HTS at 10 μM",Q4
same,Fibrin % cell toxicity,primary rat microglia [4]; rat,1%
same,LPS % cell toxicity,primary rat microglia [5]; rat,0%
N=C(N)c1ccc(OCCCCCOc2ccc(C(=N)N)cc2)cc1 [Pentamidine],inhibition at 10 µM,"[1]; Rattus norvegicus, Microglia",6%
same,inhibition at 10 µM,[2]; [9],33%
same,Quadrant (FIG. 5b),[3],Q4
same,Fibrin % cell toxicity,primary rat microglia [4]; rat,1%
same,LPS % cell toxicity,primary rat microglia [5]; rat,1%
CC(C)NNC(=O)c1ccncc1 [Iproniazid],inhibition at 10 µM,"[1]; Rattus norvegicus, Microglia, primary microglia HTS, fibrin stimulation, activation = cell size >800 μm2",-44%
same,inhibition at 10 µM,"[2]; Rattus norvegicus, Microglia, 48 h, primary microglia HTS, LPS stimulation, activation = cell size >800 μm2; read-out: LPS % inhibition",10%
same,Quadrant (FIG. 5b),[3]; [14],Q4
same,Fibrin % cell toxicity,primary rat microglia [4]; rat,1%
same,LPS % cell toxicity,primary rat microglia [5]; rat,0%
"CC(=O)O[C@H]1CC[C@@]2(C)C(=CC[C@@H]3[C@@H]2CC[C@]2(C)C(=O)CC[C@@H]32)C1 [Praesterone Acetate, Prasterone Acetate]",Fibrin % inhibition,[1]; [15],−3%
same,LPS % inhibition,[2],5%
same,Quadrant (FIG. 5b),[3]; [12],Q4
same,Fibrin % cell toxicity,primary rat microglia [4],1%
same,LPS % cell toxicity,primary rat microglia [5],0%
S=P(N1CC1)(N1CC1)N1CC1 [Thiotepa],inhibition at 10 µM,[1]; [6],-15%
same,inhibition at 10 µM,[2]; [7],15%
same,Quadrant (FIG. 5b),[3]; [8],Q4
same,Fibrin % cell toxicity,primary rat microglia [4]; rat,1%
same,LPS % cell toxicity,primary rat microglia [5]; rat,1%
CN(Cc1cnc2nc(N)nc(N)c2n1)c1ccc(C(=O)N[C@@H](CCC(=O)O)C(=O)O)cc1 [Methotrexate],inhibition at 10 µM,[1]; [16],-32%
same,inhibition at 10 µM,[2]; [17],-4%
same,Quadrant (FIG. 5b),[3]; [14],Q4
same,Fibrin % cell toxicity,primary rat microglia [4]; rat,1%
same,LPS % cell toxicity,primary rat microglia [5]; rat,0%
Cc1ccccc1OCC(O)CO (stereo not shown) [Mephenesin],inhibition at 10 µM,[1]; [16],14%
same,inhibition at 10 µM,[2]; [17],13%
same,Quadrant (FIG. 5b),[3]; [14],Q4
same,Fibrin % cell toxicity,primary rat microglia [4]; rat,0%
same,LPS % cell toxicity,primary rat microglia [5]; rat,0%
"CC(=O)[C@]1(O)Cc2c(O)c3c(c(O)c2[C@@H](O[C@H]2C[C@H](N)[C@H](O)[C@H](C)O2)C1)C(=O)c1ccccc1C3=O.Cl [Idarubicin, Idarubicin Hydrochloride]",Fibrin % inhibition,"[1]; primary microglia HTS, fibrin stimulation, increased cell size (>800 μm^2) as marker of activation",106%
same,LPS % inhibition,"[2]; primary microglia HTS, LPS stimulation; increased cell size (>800 μm^2) as marker of activation",106%
same,Quadrant (FIG. 5b),[3]; [14],Q2
same,Fibrin % cell toxicity,primary rat microglia [4],90%
same,LPS % cell toxicity,primary rat microglia [5],40%
CO[C@H]1/C=C/O[C@@]2(C)Oc3c(C)c(O)c4c(O)c(c(/C=N/N5CCN(C)CC5)c(O)c4c3C2=O)NC(=O)/C(C)=C\C=C\[C@H](C)[C@H](O)[C@@H](C)[C@@H](O)[C@@H](C)[C@H](OC(C)=O)[C@@H]1C [Rifampicin],Fibrin % inhibition,[1],−21%
same,LPS % inhibition,[2],7%
same,Quadrant (FIG. 5b),[3],Q4
same,Fibrin % cell toxicity,primary rat microglia [4]; rat,1%
same,LPS % cell toxicity,primary rat microglia [5]; rat,0%
CC1=C(CC(=O)O)c2cc(F)ccc2/C1=C\c1ccc([S+](C)[O-])cc1 (stereo not shown) [Sulindac],inhibition at 10 µM,[1]; [6],21%
same,inhibition at 10 µM,[2]; [7],6%
same,Quadrant (FIG. 5b),[3]; [8],Q4
same,Fibrin % cell toxicity,primary rat microglia [4]; rat,1%
same,LPS % cell toxicity,primary rat microglia [5]; rat,0%
CCN(CC)CCCC(C)Nc1ccnc2cc(Cl)ccc12 (stereo not shown) [Chloroquine],inhibition at 10 µM,"[1]; Rattus norvegicus, Microglia",2%
same,inhibition at 10 µM,[2]; [13],7%
same,Quadrant (FIG. 5b),[3],Q4
same,Fibrin % cell toxicity,primary rat microglia [4]; rat,0%
same,LPS % cell toxicity,primary rat microglia [5]; rat,0%
C=C[C@H]1C[N@@]2CC[C@H]1C[C@H]2[C@H](O)c1ccnc2ccc(OC)cc12 [Quinine],Fibrin % inhibition,[1]; [15],−32%
same,LPS % inhibition,[2],−7%
same,Quadrant (FIG. 5b),[3]; [12],Q4
same,Fibrin % cell toxicity,primary rat microglia [4]; rat,1%
same,LPS % cell toxicity,primary rat microglia [5]; rat,0%
CC(=O)[C@H]1CC[C@H]2[C@@H]3CC=C4C[C@@H](OC(=O)CCC(=O)O)CC[C@]4(C)[C@H]3CC[C@]12C [Pregnenolone Succinate],inhibition at 10 µM,[1]; [10],4%
same,inhibition at 10 µM,[2]; [11],21%
same,Quadrant (FIG. 5b),[3]; [12],Q4
same,Fibrin % cell toxicity,primary rat microglia [4]; rat,1%
same,LPS % cell toxicity,primary rat microglia [5]; rat,1%
O=C(O)CN1C(=O)c2cccc3cccc(c23)C1=O [Alrestatin],inhibition at 10 µM,"[1]; Rattus norvegicus, Microglia",11%
same,inhibition at 10 µM,[2]; [13],12%
same,Quadrant (FIG. 5b),[3],Q4
same,Fibrin % cell toxicity,primary rat microglia [4]; rat,1%
same,LPS % cell toxicity,primary rat microglia [5]; rat,0%
"CC(=O)OCC(=O)[C@@]1(O)[C@H](C)C[C@H]2[C@@H]3CCC4=CC(=O)C=C[C@]4(C)[C@@]3(F)[C@@H](O)C[C@@]21C [Dexamethasone acetate, reference compound]",inhibition at 10 µM,"[1]; Rattus norvegicus, Microglia",112%
same,IC50,"[1]; Rattus norvegicus, Microglia, read-out: fib_IC50 (uM)",0.002 µM
same,inhibition at 10 µM,[2]; [9],105%
same,IC50,"[2]; Rattus norvegicus, Microglia, read-out: LPS_IC50 (uM)",0.002 µM
same,Quadrant (FIG. 5b),[3],Q2
same,Fibrin % cell toxicity,primary rat microglia [4]; rat,4%
same,LPS % cell toxicity,primary rat microglia [5]; rat,7%
CO/N=C(\C(=O)N[C@@H]1C(=O)N2C(C(=O)O)=C(CSc3nc(=O)c(=O)[nH]n3C)CS[C@H]12)c1csc(N)n1 [Ceftriaxone],inhibition at 10 µM,"[1]; Rattus norvegicus, Microglia",-16%
same,inhibition at 10 µM,[2]; [13],12%
same,Quadrant (FIG. 5b),[3],Q4
same,Fibrin % cell toxicity,primary rat microglia [4]; rat,1%
same,LPS % cell toxicity,primary rat microglia [5]; rat,0%
NC(=O)[C@@H]1CCCN1C(=O)[C@H](Cc1cnc[nH]1)NC(=O)[C@@H]1CCC(=O)N1 [Protirelin],Fibrin % inhibition,[1]; [15],2%
same,LPS % inhibition,[2],15%
same,Quadrant (FIG. 5b),[3]; [12],Q4
same,Fibrin % cell toxicity,primary rat microglia [4],1%
same,LPS % cell toxicity,primary rat microglia [5],1%
Cc1c(O)cccc1C(=O)N[C@@H](CSc1ccccc1)[C@H](O)CN1C[C@H]2CCCC[C@H]2C[C@H]1C(=O)NC(C)(C)C [Nelfinavir],inhibition at 10 µM,[1]; [16],16%
same,inhibition at 10 µM,[2]; [17],13%
same,Quadrant (FIG. 5b),[3]; [14],Q4
same,Fibrin % cell toxicity,primary rat microglia [4]; rat,1%
same,LPS % cell toxicity,primary rat microglia [5]; rat,0%
Cc1[nH]c(=O)c(C#N)cc1-c1ccncc1 [Milrinone],inhibition at 10 µM,[1]; [16],4%
same,inhibition at 10 µM,[2]; [17],23%
same,Quadrant (FIG. 5b),[3]; [14],Q4
same,Fibrin % cell toxicity,primary rat microglia [4]; rat,0%
same,LPS % cell toxicity,primary rat microglia [5]; rat,0%
